Patent US20030139374A1 (University of Texas, published 2003)

Columns and labels:
[1] = test system: F9 sarcoma tumors; assay: F9 sarcoma mouse model, tumor tissue necrosis; format: in vivo, balb/c nude mice; settings: endotoxin-free tTF 4 μg; three days after treatment
Method: 1×10^7 F9 sarcoma cells were injected subcutaneously into the right flank of balb/c nude mice. Subcutanous tumors were measured with a caliper in three perpendicular directions a, b, and c, and volumes calculated according to the formula V=π/6×a×b×c. Treatment was initiated when subcutaneous tumors reached a size of 150 to 300 μl.
Reagents were administered into the lateral tail vein.
Mice were closely observed after treatment for clinical signs of toxicity and clinical status was documented at defined time points. Three days after treatment, mice were sacrificed and tumors were harvested. Paraffin embedded tissues were stained with hematoxilin and eosin (H&E). Tissue sections were analyzed on a light microscope by two independent investigators and histological findings were documented. Tumor sections with necrotic areas were scanned with a GS-700 imaging densitometer (Biorad. Hercules, Calif.) and areas of necrosis were calculated as % of total section area.

[2] = test system: L540rec human Hodgkin's lymphoma tumors; assay: Tumor tissue necrosis in L540rec tumor-bearing SCID mice treated with tTF and/or endotoxin; format: in vivo
Method: For in vivo studies, a metastasizing mouse model for human Hodgkin's lymphoma was used. 1×10^7 L540rec cells were injected subcutaneously into the right flank of SCID mice resulting in a subcutaneous tumor with lymph node metastases in the regional lymph node stations. Subcutanous tumors were measured with a caliper in three perpendicular directions a, b, and c, and volumes calculated according to the formula V=π/6×a×b×c.
(§1) Treatment was initiated when subcutaneous tumors reached a size of 150 to 300 μl. Reagents were administered into the lateral tail vein.
(§2) Mice were closely observed after treatment for clinical signs of toxicity and clinical status was documented at defined time points (5 minutes. 10 minutes, 15 minutes, 30 minutes. 1 hour, 2 hours, 24 hours, 48 hours, 72 hours). Blood samples were taken from the tail vein at 1 hour, 2 hours and 24 hours to measure TNFα blood levels. Three days after treatment, the mice were anesthetized, blood samples were taken from the vena cava for coagulation tests, and an autopsy was performed to document any changes in gross pathology. Tumors, lymph node metastases and the major normal organs (heart, lung, brain, liver, kidney, colon, spleen, pancreas) were harvested and prepared for histological analysis.
(§3) Tissue samples harvested at the time of autopsy were fixed in 3% NBF (normal buffered formalin) and embedded in paraffin wax. Tissue blocs were cut, dewaxed and stained with hematoxilin and eosin (H&E). Tissue sections were analyzed on a light microscope by two independent investigators and histological findings were documented. Tumor sections with necrotic areas were scanned with a GS-700 imaging densitometer (Biorad, Hercules, Calif.) and areas of necrosis were calculated as % of total section area. Statistical Analysis was performed using SPSS software (SPSS Science Software, Erkrath, Germany) applying the Mann-Whitney-U-test for ungrouped data.

[3] = test system: bEnd 3 cells; assay: Cell bound coagulation assay on stimulated bEnd 3 endothelial cells (factor Xa generation); format: cell-based, murine; settings: for Factor Xa generation due to Factor VIIa production: factor VII-only values subtracted
[4] = Plasma coagulation parameters (TAT, ATIII) three days after treatment; format: in vivo, SCID mice; settings: tTF alone, no endotoxin, three days after i.v. treatment
[5] = target: T1, Factor Xa generation (Factor VIIa, Factor X) (Homo sapiens, UniProt P08709); assay: Cell free two-stage coagulation assay; format: biochemical; settings: FIG. 2
T1 construct: purchased Sigma
Method: In vitro coagulation activity was tested in a cell free two-stage coagulation assay. Negatively charged phospholipids at a final concentration of 50 μM (phosphatidylserine and phosphatidylcholine from Sigma, Taufkirchen, Germany) in calcium buffer (50 mM Tris pH=8.1, 150 mM NaCl, 2 mg/ml BSA, 5 mM Ca^++) were mixed with Factor VIIa (Sigma, Taufkirchen, Germany) at 10 nM and with samples or controls and incubated for five min at 37° C. Factor X was added to a final concentration of 30 nM and samples were incubated for 5 min at room temperature. Finally, the chromogenic substrate S2765 (Haemochrom, Essen, Germany) was added in a 100 mM EDTA solution. Factor Xa generation as a measure of Tissue Factor activity was determined by the increase in the absorption at 405 nm.
Negatively charged phospholipids at a final concentration of 50 μM (phosphatidylserine and phosphatidylcholine from Sigma, St. Louis, Mo.) in calcium buffer (50 mM Tris pH=8.1, 150 mM NaCl, 2 mg/ml BSA, 5 mM Ca^++) were mixed with Factor VIIa (Sigma, St. Louis, Mo.) at 10 nM and with samples or controls and incubated for five minutes at 37° C. Factor X (Sigma, St. Louis, Mo.) was added to a final concentration of 30 nM and samples were incubated for 5 minutes at room temperature. […] Factor Xa generation as a measure of tissue factor activity was determined by the increase in the absorption at 405 nm.

[6] = Clinical signs of toxicity and histology of normal organs after tTF and/or endotoxin; format: in vivo, SCID mice; settings: for Symptoms: no endotoxin, tTF i.v.
Method: as §1, §2, §3

[7] = test system: A20 lymphoma cells; assay: In vitro coagulation assay on A20 cells with B21-2/10H10 capture antibody; format: cell-based, mouse; settings: for coagulation time: cells alone 190 seconds
[8] = target: T2, immobilized tTF (Homo sapiens, UniProt P13726); assay: Real time binding of tTF to immobilized tTF (surface plasmon resonance); settings: tTF 30 μg/ml alone or preincubated with endotoxin or factor VIIa
T2 construct: Recombinant soluble Tissue Factor protein (amino acids 1-219) was extracted from the periplasmic space of transformed E. coli; His tag (only implied by the Ni-NTA purification); made in house; host or cells: E. coli (periplasmic secretion, vector pswc7)
T2 sequence (P13726 33-251): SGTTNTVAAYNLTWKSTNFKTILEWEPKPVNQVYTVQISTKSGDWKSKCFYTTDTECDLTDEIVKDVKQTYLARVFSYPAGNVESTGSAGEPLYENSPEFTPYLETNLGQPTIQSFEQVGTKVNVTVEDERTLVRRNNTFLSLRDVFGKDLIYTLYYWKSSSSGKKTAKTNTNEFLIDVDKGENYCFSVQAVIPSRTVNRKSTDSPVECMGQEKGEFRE

T1 sequence (P08709 61-212 limits assumed): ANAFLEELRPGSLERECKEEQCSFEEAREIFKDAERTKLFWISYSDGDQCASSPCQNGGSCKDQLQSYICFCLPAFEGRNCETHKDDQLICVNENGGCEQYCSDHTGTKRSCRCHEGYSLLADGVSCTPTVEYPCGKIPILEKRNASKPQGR
T1 sequence (P08709 213-466 limits assumed): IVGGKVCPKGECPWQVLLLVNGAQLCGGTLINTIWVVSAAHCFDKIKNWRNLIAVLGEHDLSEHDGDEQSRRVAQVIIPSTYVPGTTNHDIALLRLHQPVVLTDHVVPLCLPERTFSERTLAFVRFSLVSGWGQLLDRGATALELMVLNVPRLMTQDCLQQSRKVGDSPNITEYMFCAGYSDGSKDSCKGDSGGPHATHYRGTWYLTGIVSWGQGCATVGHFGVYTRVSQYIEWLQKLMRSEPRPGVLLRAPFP
T1 sequence (P13726 33-251 partner limits assumed): as the sequence (P13726 33-251) above

tTF: truncated (soluble) human Tissue Factor, extracellular domain, amino acid 1-219 of the mature protein
average tumor tissue necrosis [1]: 45% | % tumor necrosis ([2]; Table 2, tTF alone, no endotoxin, three days after i.v. treatment): 4% | Percentage of tumor tissue necrosis ([2]; tTF alone (4 μg or 16 μg endotoxin-free tTF), no endotoxin): 0% | anti-tumor effect ([2]; tTF alone at 100 μg): anti-tumor effects begin to appear | anti-tumor effect ([2]; tTF alone at doses of from 4 μg to 16 μg): no anti-tumor effect | Factor Xa generation due to Factor VIIa production ([3]; stimulation with 0.5 μg/ml LPS (label LPS = medium only), 2 μg/ml factor VII and 0.01 μg/ml factor VIIa): 3.00 nkatS2222 | Factor Xa generation ([3]; stimulation with 0.5 μg/ml LPS, then incubation with labelled agent (label LPS = medium only), 0.5 μg/ml factor VIIa): 2.00 nkatS2222 | Factor Xa generation ([3]; stimulation with 10 μg/ml LPS, then incubation with labelled agent (label LPS = medium only), 0.5 μg/ml factor VIIa): 2.91 nkatS2222 | Factor Xa generation due to Factor VIIa production ([3]; stimulation with Medium, mix with 2 μg/ml factor VII and 0.01 μg/ml factor VIIa): 0.70 nkatS2222 | Factor Xa generation ([3]; stimulation with Medium, then incubation with the labelled agent (100 nM), mix with 0.5 μg/ml factor VIIa (VIIa not limiting)): 0.40 nkatS2222 | Factor Xa generation ([3]; stimulation with TNFα (500 U/ml), then incubation with labelled agent (label TNFα = medium only), 0.5 μg/ml factor VIIa): 0.67 nkatS2222 | Factor Xa generation due to Factor VIIa production ([3]; stimulation with TNFα (label TNFα = medium only), 2 μg/ml factor VII and 0.01 μg/ml factor VIIa): 1.91 nkatS2222 | TAT [4]: 25.4 ng/mL | coagulation activities before and after endotoxin removal (depyrogenation) [5]: the same | histology of normal organs ([6]; light microscopy, three days after treatment): No histological abnormalities | Symptoms ([6]; listed as TTF): None | Symptoms ([6]; listed as endotoxin-free tTF): no clinical signs of toxicity | coagulation time ([7]; 20,000 molecules per cell): 140 s | coagulation time ([7]; 300,000 molecules of tTF per cell): 40 s | concentration at which plasma coagulated in 50 seconds ([7]; bound via B21-2/10H10 to A20 cells): 3 nM | time until fibrin strands were visible ([7]; mouse plasma, tTF bound by B21-2/10H10, untreated cells 164 seconds): 36 s | increase in coagulation-inducing potency ([7]; presence of 0.1 nM Factor VIIa): 2-5 fold | binding to immobilized tTF [8]: did not bind
